Results as given in ChEMBL document CHEMBL1201862, “PubChem BioAssay data set” (2004).
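Cells were grown in 96-well plates and exposed to each compound for 48 hours at five concentrations; endpoints were interpolated linearly between bracketing concentrations, or set to the highest concentration if not reached. The concentration for 50% growth inhibition is given as GI50.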 Activity calls are given as the source filed them. No stated cut-off is given here; in the data, active = GI50 up to about 1.1 µM and inactive = higher.

Tests used:
Assay in all cases: NCI anticancer screen, dose series, 48 h
SN12C = tested on: SN12C
UACC-62 = tested on: UACC-62
OVCAR-5 = tested on: OVCAR-5
HL-60 = tested on: HL-60
K562 = tested on: K562
LOX IMVI = tested on: LOX IMVI
UO-31 = tested on: UO-31
NCI-H226 = tested on: NCI-H226
A498 = tested on: A498
NCI-H23 = tested on: NCI-H23
SR = tested on: SR
KM12 = tested on: KM12
RPMI-8226 = tested on: RPMI-8226
NCI-H460 = tested on: NCI-H460
OVCAR-4 = tested on: OVCAR-4
HOP-92 = tested on: HOP-92
IGROV-1 = tested on: IGROV-1

Measured: GI50

COc1cc(Cl)cc(O)c(=O)c1OC
inactive: SN12C 46 µM | UACC-62 24.4 µM | OVCAR-5 > 92.5 µM | HL-60 2.15 µM | K562 36.5 µM | LOX IMVI 26.1 µM | UO-31 42.4 µM | NCI-H226 25.2 µM | A498 57.1 µM | NCI-H23 35.1 µM | SR 2.2 µM | KM12 72.8 µM | RPMI-8226 15.8 µM | NCI-H460 24.3 µM | OVCAR-4 25.7 µM

COC(=O)C1CC(c2ccc(Cl)cc2)=NO1 (configuration not stated)
inactive: SN12C > 100 µM | UACC-62 > 100 µM | OVCAR-5 > 100 µM | HL-60 > 100 µM | HOP-92 > 100 µM | K562 > 100 µM | UO-31 > 100 µM | NCI-H226 > 100 µM | A498 > 100 µM | NCI-H23 > 100 µM | SR > 100 µM | IGROV-1 > 100 µM | KM12 > 100 µM | RPMI-8226 > 100 µM | NCI-H460 > 100 µM | OVCAR-4 > 100 µM

C1=CC=C2NCCCCCCC/N=C3/C=CC=CC=C3NCCCCCCC/N=C\2C=C1
inactive: SN12C > 100 µM | UACC-62 10 µM | OVCAR-5 > 100 µM | HL-60 43.5 µM | HOP-92 33.9 µM | K562 30.1 µM | LOX IMVI 54.2 µM | UO-31 > 100 µM | NCI-H226 > 100 µM | NCI-H23 11.9 µM | SR 63.5 µM | IGROV-1 10 µM | KM12 > 100 µM | RPMI-8226 35.9 µM | NCI-H460 25.4 µM | OVCAR-4 64.3 µM

NCCCCCS(=O)(=O)O
inactive: SN12C > 100 µM | UACC-62 > 100 µM | OVCAR-5 > 100 µM | HL-60 > 100 µM | K562 > 100 µM | LOX IMVI > 100 µM | UO-31 > 100 µM | A498 > 100 µM | NCI-H23 > 100 µM | SR > 100 µM | IGROV-1 > 100 µM | KM12 > 100 µM | NCI-H460 > 100 µM | OVCAR-4 > 100 µM

COc1ccc(/C=C/c2onc3c(=O)n(C)nc(-c4ccccc4)c23)cc1
inactive: SN12C > 100 µM | UACC-62 > 100 µM | HL-60 > 100 µM | HOP-92 7.26 µM | K562 > 100 µM | LOX IMVI > 100 µM | UO-31 > 100 µM | NCI-H23 > 100 µM | IGROV-1 > 100 µM | RPMI-8226 > 100 µM | NCI-H460 > 100 µM

Cc1ccc(C2CC(c3ccco3)=NN2c2ccccc2)o1 (configuration not stated)
inactive: SN12C > 100 µM | UACC-62 > 100 µM | OVCAR-5 > 100 µM | HL-60 > 100 µM | K562 > 100 µM | LOX IMVI > 100 µM | UO-31 > 100 µM | NCI-H226 > 100 µM | NCI-H23 > 100 µM | SR > 100 µM | IGROV-1 > 100 µM | KM12 > 100 µM | RPMI-8226 > 100 µM | NCI-H460 > 100 µM | OVCAR-4 > 100 µM

CCCCN(CCCC)C(=O)C(=O)C(C(=O)C(=O)OC)c1nc2ccccc2o1 (configuration not stated)
inactive: SN12C > 100 µM | OVCAR-5 > 100 µM | HL-60 69.3 µM | HOP-92 > 100 µM | K562 65.9 µM | LOX IMVI 44.8 µM | UO-31 > 100 µM | NCI-H226 > 100 µM | A498 > 100 µM | NCI-H23 > 100 µM | SR 48.8 µM | IGROV-1 50.8 µM | KM12 > 100 µM | NCI-H460 > 100 µM | OVCAR-4 > 100 µM

COCc1c(CO)cnc(C)c1OC1OC(CO)C(O)C(O)C1O (configuration not stated)
inactive: SN12C > 100 µM | UACC-62 > 100 µM | OVCAR-5 > 100 µM | K562 > 100 µM | LOX IMVI > 100 µM | UO-31 > 100 µM | NCI-H226 > 100 µM | A498 > 100 µM | SR > 100 µM | IGROV-1 > 100 µM | KM12 > 100 µM | RPMI-8226 > 100 µM | NCI-H460 > 100 µM | OVCAR-4 > 100 µM

Cn1c2ccccc2c(=O)c2c([N+](=O)[O-])ccc(NCCN)c21
inactive: SN12C 5.14 µM | UACC-62 14.9 µM | OVCAR-5 13.8 µM | HL-60 4.17 µM | HOP-92 6.76 µM | UO-31 5.64 µM | NCI-H226 13.7 µM | A498 16.5 µM | NCI-H23 10.7 µM | SR 20.1 µM | IGROV-1 12.3 µM | KM12 6.43 µM | NCI-H460 6.92 µM | OVCAR-4 12.2 µM

O=C1/C(=C/c2ccc(C(=O)O)cc2)CNC/C1=C\c1ccc(C(=O)O)cc1
inactive: SN12C > 100 µM | UACC-62 > 100 µM | OVCAR-5 > 100 µM | HL-60 > 100 µM | HOP-92 > 100 µM | K562 > 100 µM | UO-31 > 100 µM | NCI-H226 > 100 µM | A498 > 100 µM | NCI-H23 > 100 µM | SR > 100 µM | IGROV-1 > 100 µM | KM12 > 100 µM | RPMI-8226 > 100 µM | NCI-H460 > 100 µM | OVCAR-4 > 100 µM

C=C1CC(OC)(C(OC)C(=O)N(C)[C@H]2OCO[C@H]3C2O[C@H](C[C@@H](COC)OC)C(C)(C)C3OC)O[C@H](C)[C@@H]1C (some centres not stated)
inactive: SN12C 22.5 µM | UACC-62 14.5 µM | OVCAR-5 26.7 µM | HL-60 15.9 µM | K562 13.6 µM | LOX IMVI 5.68 µM | UO-31 15.7 µM | NCI-H226 6.19 µM | A498 12 µM | NCI-H23 9.57 µM | IGROV-1 10.1 µM | KM12 5.33 µM | RPMI-8226 17.2 µM | NCI-H460 9.46 µM | OVCAR-4 3.61 µM

COC1=CC(=O)C2C(C1=O)C(c1ccc(OC)c(OC)c1)[C@H]2C (some centres not stated)
inactive: UACC-62 > 100 µM | OVCAR-5 > 100 µM | HL-60 20.5 µM | HOP-92 20 µM | K562 23.4 µM | LOX IMVI 22.9 µM | UO-31 > 100 µM | NCI-H226 > 100 µM | A498 > 100 µM | NCI-H23 19.9 µM | IGROV-1 > 100 µM | KM12 > 100 µM | RPMI-8226 14.6 µM | NCI-H460 > 100 µM | OVCAR-4 16.6 µM

CCCCCCCCCCCC[N+]12CC[N+](CCN)(CC1)CC2
inactive: SN12C 76.7 µM | UACC-62 56.9 µM | OVCAR-5 17.2 µM | HL-60 27.7 µM | HOP-92 29.4 µM | K562 32.1 µM | LOX IMVI 37.8 µM | UO-31 > 100 µM | NCI-H226 63.7 µM | NCI-H23 51.6 µM | SR 26.9 µM | IGROV-1 10.8 µM | KM12 23.7 µM | RPMI-8226 28.2 µM | NCI-H460 29.2 µM | OVCAR-4 > 100 µM
